Patent publication US20070197522A1, “Dpp-iv inhibitors” (priority 2004, published 2007)
Counter-ions that a name gives are not always drawn.

Target: T1, DPP-IV (Homo sapiens, UniProt P27487)
T1 construct: Soluble human DPP-IV lacking the transmembrane anchor (Gly31-Pro766) was expressed in a recombinant YEAST-strain; Pre-Pro-alpha-mating factor leader (secretion fusion) (N, cleaved yes); made in house
Test: Inhibition of DPP-IV peptidase activity, continuous fluorimetric assay (Gly-Pro-AMC cleavage)
Type: biochemical, human and porcine
Settings: inhibition of DPP-IV peptidase activity; 50 pM DPP-IV, 16 μM Gly-Pro-AMC, pH 7.4, 25° C.; values grouped in 3 classes; read-out: IC50
Description: Inhibition of DPP-IV peptidase activity was monitored with a continuous fluorimetric assay. This assay is based on the cleavage of the substrate Gly-Pro-AMC (Bachem) by DPP-IV, releasing free AMC. The assay is carried out in 96-well microtiterplates. In a total volume of 100 μL, compounds are preincubated with 50 pM DPP-IV employing a buffer containing 10 mM Hepes, 150 mM NaCl, 0.005% Tween 20 (pH 7.4). […] The final concentration of DMSO is 1%. The inhibitory potential of the compounds were determined.
Soluble human DPP-IV lacking the transmembrane anchor (Gly31-Pro766) was expressed in a recombinant YEAST-strain as Pre-Pro-alpha-mating fusion. The secreted product (rhuDPP-IV-Gly31-Pro766) was purified from fermentation broth (>90% purity).

T1 sequence (P27487 31-766): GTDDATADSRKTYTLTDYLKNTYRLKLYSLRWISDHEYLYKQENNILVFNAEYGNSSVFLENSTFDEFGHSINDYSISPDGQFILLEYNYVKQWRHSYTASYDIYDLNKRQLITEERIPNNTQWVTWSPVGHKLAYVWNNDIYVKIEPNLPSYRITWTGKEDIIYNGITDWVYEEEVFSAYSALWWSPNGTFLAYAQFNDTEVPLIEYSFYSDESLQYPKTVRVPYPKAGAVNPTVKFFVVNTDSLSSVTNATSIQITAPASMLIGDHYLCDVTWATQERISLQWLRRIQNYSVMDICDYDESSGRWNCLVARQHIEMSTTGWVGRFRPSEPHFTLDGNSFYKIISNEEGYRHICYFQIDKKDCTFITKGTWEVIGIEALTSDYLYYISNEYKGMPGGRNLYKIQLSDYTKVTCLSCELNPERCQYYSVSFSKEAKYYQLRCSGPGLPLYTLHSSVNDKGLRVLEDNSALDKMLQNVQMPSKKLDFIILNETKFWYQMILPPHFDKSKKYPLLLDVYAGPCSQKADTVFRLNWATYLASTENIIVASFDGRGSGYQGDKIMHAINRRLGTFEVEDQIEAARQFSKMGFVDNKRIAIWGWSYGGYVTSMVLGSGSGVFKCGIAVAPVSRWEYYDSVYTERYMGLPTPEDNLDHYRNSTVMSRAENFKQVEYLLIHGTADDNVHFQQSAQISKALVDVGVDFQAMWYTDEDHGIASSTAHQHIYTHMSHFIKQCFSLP

IC50 [nM]	Structure (SMILES)
101 to 1000	N[C@@H](CC(=O)NCC1OCCc2ccccc21)Cc1ccccc1F (single isomer, unassigned) [Example 67]
101 to 1000	N[C@@H](CC(=O)NC(Cc1ccccc1)c1ccccc1)Cc1ccccc1F (single isomer, unassigned) [Example 74]
101 to 1000	N[C@@H](CC(=O)NCC1CCCc2ccccc21)Cc1ccccc1F (single isomer, unassigned) [Example 78]
101 to 1000	CN(C)C(CNC(=O)C[C@H](N)Cc1ccccc1F)c1ccccc1Cl (single isomer, unassigned) [Example 84]
101 to 1000	CN(C)C(CNC(=O)C[C@H](N)Cc1ccccc1F)c1ccccc1 (single isomer, unassigned) [Example 85]
101 to 1000	N[C@@H](CC(=O)NC(CN1CCOCC1)c1ccccc1)Cc1ccccc1F (single isomer, unassigned) [Example 86]
< 100	N[C@@H](CC(=O)NC(CN1CCCC1)c1ccccc1)Cc1ccccc1F (single isomer, unassigned) [Example 87]
< 100	N[C@@H](CC(=O)NC(CN1CCCC1)c1ccccc1Cl)Cc1ccccc1F (single isomer, unassigned) [Example 90]
101 to 1000	N[C@@H](CC(=O)NC(CN1CCCC1)c1ccccc1)Cc1ccccc1F (single isomer, unassigned) [Example 91]
101 to 1000	CC(CNC(=O)C[C@H](N)Cc1ccccc1F)c1ccc(Cl)cc1 (single isomer, unassigned) [Example 107]
101 to 1000	N[C@@H](CC(=O)NC(CN1CCCCC1)c1ccccc1)Cc1ccccc1F (single isomer, unassigned) [Example 109]
101 to 1000	N[C@@H](CC(=O)NCC(c1ccccc1)N1CCCC1)Cc1ccccc1F (single isomer, unassigned) [Example 131]
101 to 1000	N[C@@H](CC(=O)NCC(c1ccccc1Cl)N1CCCC1)Cc1ccccc1F (single isomer, unassigned) [Example 132]
< 100	NC(CC(=O)NCC(c1ccccc1Cl)N1CCCC1)Cc1ccccc1F (single isomer, unassigned) [Example 134]
< 100	NC(CC(=O)NC(CN1CCCC1)c1ccccc1)Cc1ccccc1F (single isomer, unassigned) [Example 135]
101 to 1000	C[S+]([O-])c1ccccc1CNC(=O)C[C@H](N)Cc1ccccc1F (single isomer, unassigned) [Example 137]
< 100	CC(C)[C@H](NC(=O)C[C@H](N)Cc1cc(F)c(F)cc1F)c1nc(C2CC2)no1 [Example 29, (R)-3-Amino-N—[(S)-1-(3-cyclopropyl-[1,2,4]oxadiazol-5-yl)-2-methyl-propyl]-4-(2,4,5-trifluoro-phenyl)-butyramide. Formic Acid Salt]
101 to 1000	NC(=O)c1cccc(CNC(=O)C[C@H](N)Cc2ccccc2F)c1 [Example 30, 3-{[(3R)-3-Amino-4-(2-fluoro-phenyl)-butyrylamino]-methyl}-benzamide Trifluoroacetate Salt]
101 to 1000	NC(=O)c1ccc(CNC(=O)C[C@H](N)Cc2ccccc2F)cc1 [Example 31, 4-{[(3R)-3-Amino-4-(2-fluoro-phenyl)-butyrylamino]-methyl}-benzamide.trifluoroacetate Salt]
101 to 1000	N[C@@H](CC(=O)NCc1cccc(C(=O)NC2CC2)c1)Cc1ccccc1F [Example 32, 3-{[(3R)-3-Amino-4-(2-fluoro-phenyl)-butyrylamino]-methyl}-N-cyclopropyl-benzamide. Trifluoroacetate Salt]
101 to 1000	N[C@@H](CC(=O)NCc1cccc(C(=O)NCc2ccccc2F)c1)Cc1ccccc1F [Example 33]
101 to 1000	N[C@@H](CC(=O)NCc1cccc(C(=O)Nc2ccccn2)c1)Cc1ccccc1F [Example 34]
101 to 1000	N[C@@H](CC(=O)NCc1cccc(C(=O)NCc2ccc(S(N)(=O)=O)cc2)c1)Cc1ccccc1F [Example 35]
101 to 1000	CN(Cc1ccccc1F)C(=O)C[C@H](N)Cc1ccccc1F [Example 36, (3R)-Amino-N-(2-fluoro-benzyl)-4-(2-fluoro-phenyl)-N-methyl-butyramide Hydrochloride]

IC50 [nM]	Structure (SMILES)
101 to 1000	Cc1ccccc1CN(C)C(=O)C[C@H](N)Cc1ccccc1F [Example 37, 3-Amino-4-(2-fluoro-phenyl)-N-methyl-N-(2-methyl-benzyl)-butyramide Hydrochloride]
101 to 1000	CSc1ccccc1CN(C)C(=O)C[C@H](N)Cc1ccccc1F [Example 38, 3-Amino-4-(2-fluoro-phenyl)-N-methyl-N-(2-methylsulfanyl-benzyl)-butyramide Hydrochloride]
101 to 1000	CN(C)CCNC(=O)C[C@H](N)Cc1ccccc1F [Example 39]
101 to 1000	N[C@@H](CC(=O)NCCc1ccccn1)Cc1ccccc1F [Example 40]
1000 to 2000	N[C@@H](CC(=O)NCc1ccccc1)Cc1ccccc1F [Example 41]
1000 to 2000	NC(CC(=O)NC1c2ccccc2CC1O)Cc1ccccc1F (stereo not drawn) [Example 43]
101 to 1000	N[C@@H](CC(=O)NCc1ccc(Cl)cc1Cl)Cc1ccccc1F [Example 44]
101 to 1000	NC(CC(=O)NC1CCCc2ccccc21)Cc1ccccc1F (stereo not drawn) [Example 45]
101 to 1000	N[C@@H](CC(=O)NCc1cc(F)cc(F)c1)Cc1ccccc1F [Example 46]
101 to 1000	N[C@@H](CC(=O)NC(c1ccccc1)c1ccccc1)Cc1ccccc1F [Example 47]
101 to 1000	N[C@@H](CC(=O)NCc1ccncc1)Cc1ccccc1F [Example 48]
101 to 1000	Cc1ccccc1CNC(=O)C[C@H](N)Cc1ccccc1F [Example 49]
101 to 1000	N[C@@H](CC(=O)NCCc1ccccc1)Cc1ccccc1F [Example 50]
101 to 1000	N[C@@H](CC(=O)NCc1cc(Cl)ccc1Cl)Cc1ccccc1F [Example 51]
101 to 1000	N[C@@H](CC(=O)NCc1ccccn1)Cc1ccccc1F [Example 52]
101 to 1000	N[C@@H](CC(=O)NCc1ccc(Cl)cc1)Cc1ccccc1F [Example 54]
101 to 1000	N[C@@H](CC(=O)NC1Cc2ccccc2C1)Cc1ccccc1F [Example 55]
101 to 1000	N[C@@H](CC(=O)NCc1ccc2c(c1)CCO2)Cc1ccccc1F [Example 56]
101 to 1000	COc1ccc(-c2cc(CNC(=O)C[C@H](N)Cc3ccccc3F)on2)cc1 [Example 57]
101 to 1000	N[C@@H](CC(=O)NCc1cccnc1)Cc1ccccc1F [Example 58]
101 to 1000	N[C@@H](CC(=O)NCc1ccc2c(c1)OCCO2)Cc1ccccc1F [Example 61]
101 to 1000	Cc1cc(CNC(=O)C[C@H](N)Cc2ccccc2F)no1 [Example 62]
< 100	N[C@@H](CC(=O)NCc1ccc(-n2cccn2)cc1)Cc1ccccc1F [Example 63]
1000 to 2000	N[C@@H](CC(=O)NCc1cccc(-c2ccccc2)c1)Cc1ccccc1F [Example 64]

IC50 [nM]	Structure (SMILES)
101 to 1000	N[C@@H](CC(=O)NCc1cc(F)c(F)c(F)c1)Cc1ccccc1F [Example 65]
101 to 1000	N[C@@H](CC(=O)NCc1ccc(C(F)(F)F)cc1)Cc1ccccc1F [Example 68]
1000 to 2000	N[C@@H](CC(=O)NCc1ccccc1C(F)(F)F)Cc1ccccc1F [Example 69]
101 to 1000	N[C@@H](CC(=O)NCc1cccc(Cl)c1)Cc1ccccc1F [Example 70]
101 to 1000	N[C@@H](CC(=O)NCc1c(Cl)cccc1Oc1ccccc1)Cc1ccccc1F [Example 71]
101 to 1000	CC(C)c1ccc(CNC(=O)C[C@H](N)Cc2ccccc2F)cc1 [Example 73]
101 to 1000	N[C@@H](CC(=O)NCc1ccccc1-c1ccccc1)Cc1ccccc1F [Example 75]
101 to 1000	NC(CC(=O)NCc1ccc(Oc2ccccc2)cc1)Cc1ccccc1F (stereo not drawn) [Example 76]
101 to 1000	N[C@@H](CC(=O)NCc1cccc(Oc2ccccc2)c1)Cc1ccccc1F [Example 77]
101 to 1000	Cc1noc(C)c1CCNC(=O)C[C@H](N)Cc1ccccc1F [Example 80]
1000 to 2000	COc1cccc(CCNC(=O)C[C@H](N)Cc2ccccc2F)c1 [Example 81]
101 to 1000	N[C@@H](CC(=O)NCCN1CCCCC1)Cc1ccccc1F [Example 82]
101 to 1000	N[C@@H](CC(=O)NCCc1cccnc1)Cc1ccccc1F [Example 83]
101 to 1000	Cc1ccc(C(C)NC(=O)CC(N)Cc2ccccc2F)cc1 (stereo not drawn) [Example 89]
101 to 1000	N[C@@H](CC(=O)NCCc1ccc(Cl)c(Cl)c1)Cc1ccccc1F [Example 92]
1000 to 2000	C[C@H](CNC(=O)C[C@H](N)Cc1ccccc1F)c1ccccc1 [Example 93]
101 to 1000	C[C@@H](CNC(=O)C[C@H](N)Cc1ccccc1F)c1ccccc1 [Example 94]
101 to 1000	N[C@@H](CC(=O)NCCc1ccc(Cl)cc1)Cc1ccccc1F [Example 95]
101 to 1000	N[C@@H](CC(=O)NCCc1ccccc1Cl)Cc1ccccc1F [Example 96]
1000 to 2000	COc1ccccc1CCNC(=O)C[C@H](N)Cc1ccccc1F [Example 97]
1000 to 2000	COc1ccc(CCNC(=O)C[C@H](N)Cc2ccccc2F)cc1 [Example 98]
1000 to 2000	COc1ccc([C@@H](C)NC(=O)C[C@H](N)Cc2ccccc2F)cc1 [Example 99]
1000 to 2000	COc1cccc(C(C)NC(=O)CC(N)Cc2ccccc2F)c1 (stereo not drawn) [Example 102]
101 to 1000	N[C@@H](CC(=O)NCCc1ccc(S(N)(=O)=O)cc1)Cc1ccccc1F [Example 104]
